Laboratory results: the NIST ThermoML archive (doi:10.1016/j.jct.2016.02.009)
Several values for one entry are separate records, joined by “and”; a condition that tells them apart may be missing. Equal values may be shown once.

Experiment: molar heat capacity at constant pressure
Conditions: 101.33 kPa, Small (less than 1 g) adiabatic calorimetry

CCCCCCCCCCCCCCn1cc[n+](C)c1.O=S(=O)([N-]S(=O)(=O)C(F)(F)F)C(F)(F)F
Conditions | molar heat capacity at constant pressure
180 K, Crystal 2 | 473.1 J/K/mol
180.86 K, Crystal 2 | 474.8 J/K/mol
181.71 K, Crystal 2 | 476.2 J/K/mol
183.59 K, Crystal 2 | 479.9 J/K/mol
184.16 K, Crystal 2 | 480.9 J/K/mol
186.32 K, Crystal 2 | 485.4 J/K/mol
186.61 K, Crystal 2 | 485.8 J/K/mol
189.04 K, Crystal 2 | 490.7 J/K/mol
189.07 K, Crystal 2 | 490.4 J/K/mol
190 K, Crystal 2 | 492.5 J/K/mol
191.51 K, Crystal 2 | 495.2 J/K/mol
191.77 K, Crystal 2 | 496.1 J/K/mol
193.95 K, Crystal 2 | 500 J/K/mol
194.49 K, Crystal 2 | 501.3 J/K/mol
196.39 K, Crystal 2 | 504.9 J/K/mol
197.2 K, Crystal 2 | 507 J/K/mol
198.82 K, Crystal 2 | 509.9 J/K/mol
199.91 K, Crystal 2 | 512.5 J/K/mol
200 K, Crystal 2 | 512.7 J/K/mol
201.26 K, Crystal 2 | 515.7 J/K/mol
202.62 K, Crystal 2 | 518.2 J/K/mol
203.7 K, Crystal 2 | 520.6 J/K/mol
205.33 K, Crystal 2 | 523.7 J/K/mol
206.13 K, Crystal 2 | 525.4 J/K/mol
208.03 K, Crystal 2 | 529.6 J/K/mol
208.56 K, Crystal 2 | 530.7 J/K/mol
210 K, Crystal 2 | 533.6 J/K/mol
210.73 K, Crystal 2 | 535.2 J/K/mol
210.99 K, Crystal 2 | 535.9 J/K/mol
213.42 K, Crystal 2 | 541.2 J/K/mol and 540.9 J/K/mol
215.85 K, Crystal 2 | 546.3 J/K/mol
216.12 K, Crystal 2 | 547 J/K/mol
218.27 K, Crystal 2 | 551.8 J/K/mol
218.8 K, Crystal 2 | 552.9 J/K/mol
220 K, Crystal 2 | 556 J/K/mol
220.69 K, Crystal 2 | 557.4 J/K/mol
221.49 K, Crystal 2 | 559.3 J/K/mol
223.1 K, Crystal 2 | 562.9 J/K/mol
224.17 K, Crystal 2 | 565.7 J/K/mol
225.52 K, Crystal 2 | 568.8 J/K/mol
226.84 K, Crystal 2 | 572.3 J/K/mol
227.93 K, Crystal 2 | 575.1 J/K/mol
229.5 K, Crystal 2 | 579.5 J/K/mol
230 K, Crystal 2 | 580.3 J/K/mol
230.33 K, Crystal 2 | 581.3 J/K/mol
232.15 K, Crystal 2 | 586.6 J/K/mol
232.74 K, Crystal 2 | 587.7 J/K/mol
234.8 K, Crystal 2 | 593.8 J/K/mol
235.14 K, Crystal 2 | 593.7 J/K/mol
237.44 K, Crystal 2 | 600.9 J/K/mol
237.53 K, Crystal 2 | 600.1 J/K/mol
239.92 K, Crystal 2 | 607.2 J/K/mol
240 K, Crystal 2 | 607.6 J/K/mol
240.07 K, Crystal 2 | 608 J/K/mol
242.33 K, Crystal 2 | 613.8 J/K/mol
242.71 K, Crystal 2 | 616.1 J/K/mol
244.72 K, Crystal 2 | 621.4 J/K/mol
245.33 K, Crystal 2 | 624.4 J/K/mol
247.1 K, Crystal 2 | 629.1 J/K/mol
247.95 K, Crystal 2 | 632.9 J/K/mol
249.48 K, Crystal 2 | 637 J/K/mol
250 K, Crystal 2 | 639.3 J/K/mol
250.55 K, Crystal 2 | 642.1 J/K/mol
251.33 K, Crystal 2 | 642.4 J/K/mol
252.65 K, Crystal 2 | 648 J/K/mol
253.15 K, Crystal 2 | 651.7 J/K/mol
253.97 K, Crystal 2 | 653.1 J/K/mol
255.29 K, Crystal 2 | 657.1 J/K/mol
255.74 K, Crystal 2 | 660.9 J/K/mol
256.6 K, Crystal 2 | 662.4 J/K/mol
257.91 K, Crystal 2 | 667.6 J/K/mol
258.31 K, Crystal 2 | 671.7 J/K/mol
259.22 K, Crystal 2 | 673.8 J/K/mol
260 K, Crystal 2 | 677.5 J/K/mol
260.52 K, Crystal 2 | 679.4 J/K/mol
260.86 K, Crystal 2 | 683.4 J/K/mol
261.81 K, Crystal 2 | 685.8 J/K/mol
263.1 K, Crystal 2 | 692.1 J/K/mol
263.41 K, Crystal 2 | 696 J/K/mol
264.39 K, Crystal 2 | 699.3 J/K/mol
265.67 K, Crystal 2 | 706.4 J/K/mol
265.94 K, Crystal 2 | 709.4 J/K/mol
266.97 K, Crystal 2 | 713.8 J/K/mol
268.24 K, Crystal 2 | 721.6 J/K/mol
268.46 K, Crystal 2 | 725 J/K/mol
269.5 K, Crystal 2 | 730 J/K/mol
270 K, Crystal 2 | 734.5 J/K/mol
270.76 K, Crystal 2 | 739.3 J/K/mol
270.95 K, Crystal 2 | 741.9 J/K/mol
272.01 K, Crystal 2 | 748.9 J/K/mol
273.25 K, Crystal 2 | 759 J/K/mol
273.42 K, Crystal 2 | 761.2 J/K/mol
274.48 K, Crystal 2 | 769.6 J/K/mol
275.71 K, Crystal 2 | 781.6 J/K/mol
275.87 K, Crystal 2 | 783.5 J/K/mol
276.93 K, Crystal 2 | 793.6 J/K/mol
278.14 K, Crystal 2 | 807.6 J/K/mol
278.29 K, Crystal 2 | 809.7 J/K/mol
279.35 K, Crystal 2 | 822 J/K/mol
280 K, Crystal 2 | 830.5 J/K/mol
280.54 K, Crystal 2 | 837.6 J/K/mol
280.67 K, Crystal 2 | 840.7 J/K/mol
281.72 K, Crystal 2 | 855 J/K/mol
282.9 K, Crystal 2 | 874.3 J/K/mol
283.02 K, Crystal 2 | 878.3 J/K/mol
284.05 K, Crystal 2 | 895.5 J/K/mol
285.2 K, Crystal 2 | 918.1 J/K/mol
285.31 K, Crystal 2 | 923.3 J/K/mol
286.34 K, Crystal 2 | 943.8 J/K/mol
287.46 K, Crystal 2 | 972.2 J/K/mol
287.56 K, Crystal 2 | 977.1 J/K/mol
288.56 K, Crystal 2 | 1003 J/K/mol
289.65 K, Crystal 2 | 1034 J/K/mol
289.75 K, Crystal 2 | 1039 J/K/mol
290 K, Crystal 2 | 1046 J/K/mol
290.72 K, Crystal 2 | 1067 J/K/mol
291.76 K, Crystal 2 | 1097 J/K/mol
291.87 K, Crystal 2 | 1102 J/K/mol
292.8 K, Crystal 2 | 1118 J/K/mol
293.83 K, Crystal 2 | 1139 J/K/mol
293.96 K, Crystal 2 | 1145 J/K/mol
294.85 K, Crystal 2 | 1153 J/K/mol
295.5 K, Crystal 1 | 1155 J/K/mol
295.5 K, Crystal 2 | 1155 J/K/mol
295.86 K, Crystal 1 | 1154 J/K/mol
296 K, Crystal 1 | 1156 J/K/mol
296.87 K, Crystal 1 | 1144 J/K/mol
297.93 K, Crystal 1 | 998.8 J/K/mol
298.13 K, Crystal 1 | 971.7 J/K/mol
298.15 K, Crystal 1 | 971.6 J/K/mol
299.06 K, Crystal 1 | 853.3 J/K/mol
300 K, Crystal 1 | 851.8 J/K/mol
300.22 K, Crystal 1 | 854.4 J/K/mol
300.42 K, Crystal 1 | 852.5 J/K/mol
301.39 K, Crystal 1 | 866.6 J/K/mol
302.54 K, Crystal 1 | 889.6 J/K/mol
302.77 K, Crystal 1 | 884.7 J/K/mol
303.68 K, Crystal 1 | 937.6 J/K/mol
304.77 K, Crystal 1 | 1081 J/K/mol
304.97 K, Crystal 1 | 1130 J/K/mol
305.73 K, Crystal 1 | 1438 J/K/mol
308.77 K, Crystal 1 | 898.6 J/K/mol
308.77 K, Liquid | 896.2 J/K/mol
310 K, Liquid | 897.4 J/K/mol
320 K, Liquid | 907.2 J/K/mol
330 K, Liquid | 917 J/K/mol
340 K, Liquid | 926.7 J/K/mol
350 K, Liquid | 936.5 J/K/mol
360 K, Liquid | 946.2 J/K/mol
370 K, Liquid | 956 J/K/mol
